Here are results for seven cell lines from the supplement of paper PMC10307832.

Assay in all cases: relative viability (nuclei count vs DMSO), 5 days (fraction); higher = more cells survive
Compound in the experiment “Everolimus + Linsitinib”: CO[C@H]1C[C@@H]2CC[C@@H](C)[C@@](O)(O2)C(=O)C(=O)N2CCCC[C@H]2C(=O)O[C@H]([C@H](C)C[C@@H]2CC[C@@H](OCCO)[C@H](OC)C2)CC(=O)[C@H](C)/C=C(\C)[C@@H](O)[C@@H](OC)C(=O)[C@H](C)C[C@H](C)/C=C/C=C/C=C/1C [Everolimus] + C[C@]1(O)C[C@@H](c2nc(-c3ccc4ccc(-c5ccccc5)nc4c3)c3c(N)nccn32)C1 [Linsitinib] (partner 1 µM)
In outline:
(§1)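 Each reported value is a median over duplicate plates. It expresses relative viability: treated-well nuclei count divided by vehicle-well nuclei count. Lung cancer cell lines in 1536-well plates were dosed by pin tool a day after seeding, alone with one drug or with a fixed anchor-drug dose plus five library-drug doses (not always all listed) in √10 steps, and nuclei were counted after 5 days.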

Compound in the experiment “Everolimus + Trametinib”: CO[C@H]1C[C@@H]2CC[C@@H](C)[C@@](O)(O2)C(=O)C(=O)N2CCCC[C@H]2C(=O)O[C@H]([C@H](C)C[C@@H]2CC[C@@H](OCCO)[C@H](OC)C2)CC(=O)[C@H](C)/C=C(\C)[C@@H](O)[C@@H](OC)C(=O)[C@H](C)C[C@H](C)/C=C/C=C/C=C/1C [Everolimus] + CC(=O)Nc1cccc(-n2c(=O)n(C3CC3)c(=O)c3c(Nc4ccc(I)cc4F)n(C)c(=O)c(C)c32)c1 [Trametinib] (partner 0.02 µM)
In outline:
as §1

Compound in the experiment “Everolimus + OSI-027”: CO[C@H]1C[C@@H]2CC[C@@H](C)[C@@](O)(O2)C(=O)C(=O)N2CCCC[C@H]2C(=O)O[C@H]([C@H](C)C[C@@H]2CC[C@@H](OCCO)[C@H](OC)C2)CC(=O)[C@H](C)/C=C(\C)[C@@H](O)[C@@H](OC)C(=O)[C@H](C)C[C@H](C)/C=C/C=C/C=C/1C [Everolimus] + COc1cccc2cc(-c3nc([C@H]4CC[C@H](C(=O)O)CC4)n4ncnc(N)c34)[nH]c12 [OSI-027] (partner 0.5 µM)
In short, it runs like this: as §1

Compound in the experiment “Everolimus + Lapatinib”: CO[C@H]1C[C@@H]2CC[C@@H](C)[C@@](O)(O2)C(=O)C(=O)N2CCCC[C@H]2C(=O)O[C@H]([C@H](C)C[C@@H]2CC[C@@H](OCCO)[C@H](OC)C2)CC(=O)[C@H](C)/C=C(\C)[C@@H](O)[C@@H](OC)C(=O)[C@H](C)C[C@H](C)/C=C/C=C/C=C/1C [Everolimus] + CS(=O)(=O)CCNCc1ccc(-c2ccc3ncnc(Nc4ccc(OCc5cccc(F)c5)c(Cl)c4)c3c2)o1 [Lapatinib] (partner 2 µM)
In short, it runs like this: as §1

With HOP-62, the relative viability turned out to be 0.669 with Everolimus + Linsitinib (first compound 0.01 µM); 0.603 with Everolimus + Linsitinib (first compound 0.03162 µM); 0.477 with Everolimus + Linsitinib (first compound 0.1 µM); 0.607 with Everolimus + Linsitinib (first compound 0.3162 µM); 0.449 in the experiment with Everolimus + Linsitinib (first compound 1 µM); 0.263 with Everolimus + Trametinib (first compound 0.01 µM). Further, the relative viability in the experiment with Everolimus + Trametinib (first compound 0.03162 µM) came out at 0.211; in the experiment with Everolimus + Trametinib (first compound 0.1 µM) it was 0.248; in the experiment with Everolimus + Trametinib (first compound 0.3162 µM), 0.2; in the experiment with Everolimus + Trametinib (first compound 1 µM), 0.195; in the experiment with Everolimus + OSI-027 (first compound 0.01 µM), 0.548; in the experiment with Everolimus + OSI-027 (first compound 0.03162 µM), 0.511. In addition, the relative viability in the experiment with Everolimus + OSI-027 (first compound 0.1 µM) is 0.448; with Everolimus + OSI-027 (first compound 0.3162 µM), 0.517; with Everolimus + OSI-027 (first compound 1 µM) it was 0.503; with Everolimus + Lapatinib (first compound 0.01 µM) it was 0.646; in the experiment with Everolimus + Lapatinib (first compound 0.03162 µM), 0.569; with Everolimus + Lapatinib (first compound 0.1 µM) it was 0.533. Further, the relative viability with Everolimus + Lapatinib (first compound 0.3162 µM) came out at 0.659; with Everolimus + Lapatinib (first compound 1 µM), 0.782.
LC-2-ad: the relative viability was 0.75 with Everolimus + Linsitinib (first compound 0.01 µM); 0.744 with Everolimus + Linsitinib (first compound 0.03162 µM); 0.781 with Everolimus + Linsitinib (first compound 0.1 µM); 0.766 with Everolimus + Linsitinib (first compound 0.3162 µM); 0.702 in the experiment with Everolimus + Linsitinib (first compound 1 µM); 0.961 in the experiment with Everolimus + Trametinib (first compound 0.01 µM). Besides, the relative viability with Everolimus + Trametinib (first compound 0.03162 µM) is 0.957; with Everolimus + Trametinib (first compound 0.1 µM), 0.948; with Everolimus + Trametinib (first compound 0.3162 µM), 0.964; with Everolimus + Trametinib (first compound 1 µM) it was 0.891; in the experiment with Everolimus + OSI-027 (first compound 0.01 µM), 0.669; with Everolimus + OSI-027 (first compound 0.03162 µM), 0.7. In addition, the relative viability with Everolimus + OSI-027 (first compound 0.1 µM) worked out at 0.602; with Everolimus + OSI-027 (first compound 0.3162 µM) it was 0.618; with Everolimus + OSI-027 (first compound 1 µM), 0.569; in the experiment with Everolimus + Lapatinib (first compound 0.01 µM), 0.924; in the experiment with Everolimus + Lapatinib (first compound 0.03162 µM), 0.874; with Everolimus + Lapatinib (first compound 0.1 µM), 0.941. Moreover, the relative viability in the experiment with Everolimus + Lapatinib (first compound 0.3162 µM) was determined as 0.931; in the experiment with Everolimus + Lapatinib (first compound 1 µM), 1.08.
On to LCLC-97TM1, for which the relative viability is 0.141 in the experiment with Everolimus + Linsitinib (first compound 0.01 µM); 0.142 in the experiment with Everolimus + Linsitinib (first compound 0.03162 µM); 0.147 with Everolimus + Linsitinib (first compound 0.1 µM); 0.129 with Everolimus + Linsitinib (first compound 0.3162 µM); 0.151 in the experiment with Everolimus + Linsitinib (first compound 1 µM); 0.153 in the experiment with Everolimus + Trametinib (first compound 0.01 µM). For the same cell line, the relative viability in the experiment with Everolimus + Trametinib (first compound 0.03162 µM) was determined as 0.164; in the experiment with Everolimus + Trametinib (first compound 0.1 µM) it was 0.126; in the experiment with Everolimus + Trametinib (first compound 0.3162 µM), 0.155; with Everolimus + Trametinib (first compound 1 µM), 0.147; with Everolimus + OSI-027 (first compound 0.01 µM), 0.455; with Everolimus + OSI-027 (first compound 0.03162 µM), 0.362. In addition, the relative viability with Everolimus + OSI-027 (first compound 0.1 µM) worked out at 0.36; with Everolimus + OSI-027 (first compound 0.3162 µM) it was 0.337; with Everolimus + OSI-027 (first compound 1 µM), 0.458; with Everolimus + Lapatinib (first compound 0.01 µM), 0.611; with Everolimus + Lapatinib (first compound 0.03162 µM), 0.869; with Everolimus + Lapatinib (first compound 0.1 µM), 0.759. Further, the relative viability with Everolimus + Lapatinib (first compound 0.3162 µM) was determined as 0.817; with Everolimus + Lapatinib (first compound 1 µM) it was 0.852.
For LK-2, the relative viability in the experiment with Everolimus + Linsitinib (first compound 0.01 µM) came out at 0.426; with Everolimus + Linsitinib (first compound 0.03162 µM), 0.497; with Everolimus + Linsitinib (first compound 0.1 µM), 0.286; with Everolimus + Linsitinib (first compound 0.3162 µM), 0.282; in the experiment with Everolimus + Linsitinib (first compound 1 µM) it was 0.198; with Everolimus + Trametinib (first compound 0.01 µM), 0.688. Further, the relative viability with Everolimus + Trametinib (first compound 0.03162 µM) was found to be 0.468; with Everolimus + Trametinib (first compound 0.1 µM), 0.425; in the experiment with Everolimus + Trametinib (first compound 0.3162 µM), 0.421; with Everolimus + Trametinib (first compound 1 µM), 0.438; with Everolimus + OSI-027 (first compound 0.01 µM) it was 0.152; in the experiment with Everolimus + OSI-027 (first compound 0.03162 µM), 0.153. The relative viability with Everolimus + OSI-027 (first compound 0.1 µM) amounted to 0.167; with Everolimus + OSI-027 (first compound 0.3162 µM), 0.162; with Everolimus + OSI-027 (first compound 1 µM), 0.172; in the experiment with Everolimus + Lapatinib (first compound 0.01 µM), 0.664; in the experiment with Everolimus + Lapatinib (first compound 0.03162 µM), 0.533; with Everolimus + Lapatinib (first compound 0.1 µM), 0.787. The relative viability with Everolimus + Lapatinib (first compound 0.3162 µM) was 0.471; in the experiment with Everolimus + Lapatinib (first compound 1 µM), 0.449.
As for LOU-NH91, the relative viability is 0.794 with Everolimus + Linsitinib (first compound 0.01 µM); 0.644 with Everolimus + Linsitinib (first compound 0.03162 µM); 0.718 with Everolimus + Linsitinib (first compound 0.1 µM); 0.585 in the experiment with Everolimus + Linsitinib (first compound 0.3162 µM); 0.66 with Everolimus + Linsitinib (first compound 1 µM); 0.626 with Everolimus + Trametinib (first compound 0.01 µM). In addition, the relative viability with Everolimus + Trametinib (first compound 0.03162 µM) was found to be 0.695; in the experiment with Everolimus + Trametinib (first compound 0.1 µM), 0.667; with Everolimus + Trametinib (first compound 0.3162 µM), 0.612; in the experiment with Everolimus + Trametinib (first compound 1 µM), 0.623; with Everolimus + OSI-027 (first compound 0.01 µM), 0.529; with Everolimus + OSI-027 (first compound 0.03162 µM), 0.57. The relative viability was 0.531 in the experiment with Everolimus + OSI-027 (first compound 0.1 µM); 0.524 in the experiment with Everolimus + OSI-027 (first compound 0.3162 µM); 0.516 in the experiment with Everolimus + OSI-027 (first compound 1 µM); 0.553 with Everolimus + Lapatinib (first compound 0.01 µM); 0.56 with Everolimus + Lapatinib (first compound 0.03162 µM); 0.58 in the experiment with Everolimus + Lapatinib (first compound 0.1 µM). Also, the relative viability with Everolimus + Lapatinib (first compound 0.3162 µM) was 0.615; with Everolimus + Lapatinib (first compound 1 µM) it was 0.546.
Regarding LU99A, the relative viability in the experiment with Everolimus + Linsitinib (first compound 0.01 µM) came out at 0.342; with Everolimus + Linsitinib (first compound 0.03162 µM), 0.345; with Everolimus + Linsitinib (first compound 0.1 µM), 0.295; in the experiment with Everolimus + Linsitinib (first compound 0.3162 µM), 0.283; in the experiment with Everolimus + Linsitinib (first compound 1 µM) it was 0.334; with Everolimus + Trametinib (first compound 0.01 µM) it was 0.35. Further, the relative viability with Everolimus + Trametinib (first compound 0.03162 µM) came to 0.268; with Everolimus + Trametinib (first compound 0.1 µM) it was 0.298; with Everolimus + Trametinib (first compound 0.3162 µM), 0.314; with Everolimus + Trametinib (first compound 1 µM) it was 0.354; with Everolimus + OSI-027 (first compound 0.01 µM), 0.234; with Everolimus + OSI-027 (first compound 0.03162 µM), 0.243. The relative viability with Everolimus + OSI-027 (first compound 0.1 µM) came to 0.245; with Everolimus + OSI-027 (first compound 0.3162 µM) it was 0.248; in the experiment with Everolimus + OSI-027 (first compound 1 µM), 0.241; in the experiment with Everolimus + Lapatinib (first compound 0.01 µM), 0.621; with Everolimus + Lapatinib (first compound 0.03162 µM) it was 0.548; in the experiment with Everolimus + Lapatinib (first compound 0.1 µM) it was 0.573. For the same cell line, the relative viability with Everolimus + Lapatinib (first compound 0.3162 µM) was 0.52; with Everolimus + Lapatinib (first compound 1 µM), 0.55.
For the cell line LXF-289, the relative viability with Everolimus + Linsitinib (first compound 0.01 µM) is 0.984; in the experiment with Everolimus + Linsitinib (first compound 0.03162 µM) it was 0.972; with Everolimus + Linsitinib (first compound 0.1 µM) it was 0.913; with Everolimus + Linsitinib (first compound 0.3162 µM) it was 1.02; with Everolimus + Linsitinib (first compound 1 µM) it was 0.917; in the experiment with Everolimus + Trametinib (first compound 0.01 µM) it was 0.625. In addition, the relative viability was determined as 0.537 with Everolimus + Trametinib (first compound 0.03162 µM); 0.574 with Everolimus + Trametinib (first compound 0.1 µM); 0.508 with Everolimus + Trametinib (first compound 0.3162 µM); 0.528 with Everolimus + Trametinib (first compound 1 µM); 0.654 with Everolimus + OSI-027 (first compound 0.01 µM); 0.604 with Everolimus + OSI-027 (first compound 0.03162 µM). For the same cell line, the relative viability with Everolimus + OSI-027 (first compound 0.1 µM) came out at 0.529; with Everolimus + OSI-027 (first compound 0.3162 µM) it was 0.572; in the experiment with Everolimus + OSI-027 (first compound 1 µM) it was 0.576; in the experiment with Everolimus + Lapatinib (first compound 0.01 µM), 0.908; in the experiment with Everolimus + Lapatinib (first compound 0.03162 µM), 0.951; with Everolimus + Lapatinib (first compound 0.1 µM) it was 0.889. The relative viability in the experiment with Everolimus + Lapatinib (first compound 0.3162 µM) amounted to 0.889; with Everolimus + Lapatinib (first compound 1 µM) it was 0.899.
